Results: patent US4503256A, “Phlorophenone derivatives, processes for preparing such compounds, uses and pharmaceutical compositions of phlorophenone compounds” (Noristan Limited, priority 1981, dated 1985)
In brackets after ≈: the same amount, converted by molar mass. Like-named read-outs stand apart in the source and are kept apart here.

Experiments:
S. AUREUS = test: Minimum Inhibitory Concentration (MIC), broth dilution in Brain Heart Infusion broth; format: cell-based, Staphylococcus aureus; conditions: Staphylococcus aureus, read-out: MIC S. AUREUS
Procedure: (§1) For testing against the bacteria, concentrations of each of the compounds were prepared in Brain Heart Infusion broth (Oxoid CM225) in two-fold steps from 1000 μg/ml to 1 μg/ml. Solutions containing 1000 μg/ml were prepared by dissolving 20 mg of each compound in 5 ml of acetone and this was then made up to 20 ml with Brain Heart Infusion Broth. Serial two-fold dilutions were then prepared in the broth down to 1 μg/ml.
(§2) For testing against the bacteria each of the prepared test concentrations and acetone controls prepared in Brain Heart Infusion were dispensed in 2 ml amounts for each organism. A growth control of 2 ml of Brain Heart Infusion was included in each series.
(§3) To each of the prepared sets of concentrations of each compound were added 0.1 ml aliquots of the organism suspensions prepared as described previously. All the bottles were incubated at 37° C. for 48 hours in the case of the bacteria and from 5 to 15 days for the fungi (until growth controls had grown in each case).
(§4) After incubation the broths were examined for evidence of growth. The lowest concentration of the test compound which prevented growth was recorded as the Minimum Inhibitory Concentration (MIC).

St. PYOGENES = test: as above; format: cell-based; conditions: Streptococcus pyogenes, 37° C., 48 hours
Procedure: as §1, §2, §3, §4

C. ALBICANS = test: Minimum Inhibitory Concentration (MIC), dilution in Sabouraud liquid medium; format: cell-based; conditions: Candida albicans, 37° C., 5 to 15 days
Procedure: (§5) For testing against the fungi, concentrations of each of the compounds were prepared in Sabouraud liquid medium in two-fold steps from 100 μg/ml to 0.1 μg/ml. 500 μg/ml solutions were prepared by dissolving 10 mg in 5 ml of acetone, made up to 20 ml with Sabouraud liquid medium. 4 ml of the 500 μg/ml concentration was then made up to 20 ml with Sabouraud liquid medium to give a concentration of 100 μg/ml. Serial two-fold dilutions were prepared from this in the same medium down to 0.1 μg/ml.
(§6) For the fungi the same procedure was followed using the concentrations made up in Sabouraud liquid medium. The Nystatin concentrations were also dispensed in 2 ml amounts for each organism. Growth controls of Sabouraud liquid medium were included in each series.
as §3, §4

Mic. CANIS = test: as above; format: cell-based; conditions: Microsporum canis, 37° C., 5 to 15 days
Procedure: as §5, §6, §3, §4

Sp. SCHENKII = test: as above; format: cell-based; conditions: 37° C., 5 to 15 days
Procedure: as §5, §6, §3, §4

Tr. MENTAGROPHYTES = test: as above; format: cell-based; conditions: Trichophyton mentagrophytes, 37° C., 5 to 15 days
Procedure: as §5, §6, §3, §4

Tr. RUBRUM = test: as above; format: cell-based; conditions: Trichophyton rubrum, 37° C., 5 to 15 days
Procedure: as §5, §6, §3, §4

[1] = Acute oral toxicity in CD-1 mice; format: in vivo; conditions: mouse, in vivo, male and female CD-1 mice, dose levels 1000, 464, 215 and 100 mg/kg, 7 days observation
Procedure: Male and female CD-1 mice were fasted for 18 hours prior to the experiment, but water was available ad libitum except during the observation period. The test compounds were prepared in 1% tragacanth and were administered orally to groups of two male and two female mice.
All compounds were tested at dose levels of 1000, 464, 215 and 100 mg/kg. Immediately after dosing, the mice were replaced in their "home" cage and were observed daily for 7 days post dose and any mortalities recorded.
The acute toxicities, as determined by the above procedure, of a number of representative compounds are given in the accompanying table.

[2] = 37° C., 48 hours, Brain Heart Infusion broth

| SMILES | MIC (S. AUREUS; [2]) [µg/mL] | MIC (St. PYOGENES) [µg/mL] | MIC (C. ALBICANS) [µg/mL] | MIC (Mic. CANIS) [µg/mL] | MIC (Sp. SCHENKII) [µg/mL] | MIC (Tr. MENTAGROPHYTES) [µg/mL] | MIC (Tr. RUBRUM) [µg/mL] | LD50 at 168 h [1] [mg/kg] | MIC (S. AUREUS; 48 h) [µg/mL] |
| --- | --- | --- | --- | --- | --- | --- | --- | --- | --- |
| CCCC(=O)c1c(O)cc(O)c(C(=O)CCC)c1O [Compound 1, 2,4-Dibutyrylphloroglucinol] | 2 (≈ 7.51 µM) | 1 (≈ 3.76 µM) | 13 (≈ 48.8 µM) | 3 (≈ 11.3 µM) | 6 (≈ 22.5 µM) | 6 (≈ 22.5 µM) | 6 (≈ 22.5 µM) | > 1000 |  |
| CCC(=O)c1c(O)cc(O)c(CC=C(C)C)c1O [Compound 2, 2-Propionyl-4-(3-methylbuten-2-yl)phloroglucinol] | 125 (≈ 499 µM) | 8 (≈ 32 µM) | 50 (≈ 200 µM) | 13 (≈ 51.9 µM) | 25 (≈ 99.9 µM) | 25 (≈ 99.9 µM) | 13 (≈ 51.9 µM) | > 1000 |  |
| CCCCC(=O)c1c(O)cc(O)c(CC=C(C)C)c1O [Compound 4, 2-Valeryl-4-(3-methylbuten-2-yl)phloroglucinol] | 64 (≈ 230 µM) | 16 (≈ 57.5 µM) | 25 (≈ 89.8 µM) | 13 (≈ 46.7 µM) | 25 (≈ 89.8 µM) | 13 (≈ 46.7 µM) | 13 (≈ 46.7 µM) | > 1000 |  |
| CCCCCC(=O)c1c(O)cc(O)c(CC=C(C)C)c1O [Compound 5, 2-Caproyl-4-(3-methylbuten-2-yl)phloroglucinol] | 8 (≈ 27.4 µM) | 4 (≈ 13.7 µM) | 13 (≈ 44.5 µM) | 1.6 (≈ 5.47 µM) | 13 (≈ 44.5 µM) | 6 (≈ 20.5 µM) | 3 (≈ 10.3 µM) | > 1000 |  |
| CC(C)=CCc1c(O)cc(O)c(C(=O)Cc2ccccc2)c1O [Compound 6, 2Phenylacetyl-4-(3-methylbuten-2-yl)phloroglucinol] | 250 (≈ 800 µM) | 8 (≈ 25.6 µM) | > 100 | 50 (≈ 160 µM) | 50 (≈ 160 µM) | 100 (≈ 320 µM) | 25 (≈ 80 µM) | > 1000 |  |
| CC(C)=CCc1c(O)cc(O)c(C(=O)CCC(C)C)c1O [Compound 7, 2-Isocaproyl-4-(3-methylbuten-2-yl)phloroglucinol] | 16 (≈ 54.7 µM) | 8 (≈ 27.4 µM) | 25 (≈ 85.5 µM) | 6 (≈ 20.5 µM) | 25 (≈ 85.5 µM) | 6 (≈ 20.5 µM) | 6 (≈ 20.5 µM) | 1000 |  |
| CC(C)=CCc1c(O)cc(O)c(C(=O)C2CCCCC2)c1O [Compound 8, 2-Hexahydrobenzoyl-4-(3-methylbuten-2-yl)phloroglucinol] | 32 (≈ 105 µM) | 8 (≈ 26.3 µM) | 13 (≈ 42.7 µM) | 6 (≈ 19.7 µM) | 13 (≈ 42.7 µM) | 6 (≈ 19.7 µM) | 6 (≈ 19.7 µM) | > 1000 |  |
| CC(C)=CCc1c(O)cc(O)c(C(=O)C2CCCC2)c1O [Compound 9, 2-(2-Cyclopentyl-1-oxo)-4-(3-methylbuten-2-yl)phloroglucinol] |  | 8 (≈ 27.6 µM) | 6.2 (≈ 21.4 µM) | 1.6 (≈ 5.51 µM) | 6.2 (≈ 21.4 µM) | 6.2 (≈ 21.4 µM) | 3.1 (≈ 10.7 µM) | < 100 | 32 (≈ 110 µM) |
| CCCCCCCC(=O)c1c(O)cc(O)c(CC=C(C)C)c1O [Compound 11, 2-Octanoyl-4-(3-methylbuten-2-yl)phloroglucinol] | 64 (≈ 200 µM) | 2 (≈ 6.24 µM) | 100 (≈ 312 µM) | 50 (≈ 156 µM) | > 100 | 100 (≈ 312 µM) | 50 (≈ 156 µM) | 597 |  |
| CC(C)=CCc1c(O)cc(O)c(C(=O)Cc2ccc(Cl)cc2)c1O [Compound 14, 2-(4-Chlorophenyl)acetyl-4-(3-methylbuten-2-yl)phloroglucinol] | 16 (≈ 46.1 µM) | 8 (≈ 23.1 µM) | 100 (≈ 288 µM) | 50 (≈ 144 µM) | 100 (≈ 288 µM) | 100 (≈ 288 µM) | > 100 | 1000 |  |
| C=CCc1c(O)cc(O)c(C(=O)CC)c1O [Compound 15] | 250 (≈ 1120 µM) | 125 (≈ 562 µM) | 100 (≈ 450 µM) | 50 (≈ 225 µM) | 50 (≈ 225 µM) | 25 (≈ 112 µM) | 50 (≈ 225 µM) | > 1000 |  |
| C=CCc1c(O)cc(O)c(C(=O)CCCC)c1O [Compound 17] | 64 (≈ 256 µM) | 16 (≈ 63.9 µM) | 25 (≈ 99.9 µM) | 6 (≈ 24 µM) | 25 (≈ 99.9 µM) | 13 (≈ 51.9 µM) | 13 (≈ 51.9 µM) | > 1000 |  |
| C=CCc1c(O)cc(O)c(C(=O)CCCCC)c1O [Compound 18] | 16 (≈ 60.5 µM) | 8 (≈ 30.3 µM) | 13 (≈ 49.2 µM) | 6 (≈ 22.7 µM) | 13 (≈ 49.2 µM) | 6 (≈ 22.7 µM) | 13 (≈ 49.2 µM) | > 1000 |  |
| C=CCc1c(O)cc(O)c(C(=O)CCC(C)C)c1O [Compound 19] | 16 (≈ 60.5 µM) | 4 (≈ 15.1 µM) | 25 (≈ 94.6 µM) | 6 (≈ 22.7 µM) | 13 (≈ 49.2 µM) | 13 (≈ 49.2 µM) | 6 (≈ 22.7 µM) | > 1000 |  |
| C=CCc1c(O)cc(O)c(C(=O)C2CCCCC2)c1O [Compound 20] | 32 (≈ 116 µM) | 8 (≈ 29 µM) | 25 (≈ 90.5 µM) | 13 (≈ 47 µM) | 25 (≈ 90.5 µM) | 13 (≈ 47 µM) | 25 (≈ 90.5 µM) | > 1000 |  |
| C=CCc1c(O)cc(O)c(C(=O)Cc2ccc(Cl)cc2)c1O [Compound 23] | 32 (≈ 100 µM) | 8 (≈ 25.1 µM) | 13 (≈ 40.8 µM) | 6 (≈ 18.8 µM) | 25 (≈ 78.4 µM) | 13 (≈ 40.8 µM) | 13 (≈ 40.8 µM) | > 1000 |  |
| CCCC(=O)c1c(O)cc(O)c(Cc2ccccc2)c1O [Compound 24, 2-Butyryl-4-benzylphloroglucinol] | 16 (≈ 55.9 µM) | 8 (≈ 27.9 µM) | 25 (≈ 87.3 µM) | 13 (≈ 45.4 µM) | 25 (≈ 87.3 µM) | 13 (≈ 45.4 µM) | 6 (≈ 21 µM) | 1000 |  |
| CC(C)CCC(=O)c1c(O)cc(O)c(Cc2ccccc2)c1O [Compound 25, 2-Isocaproyl-4-benzylphloroglucinol] | 16 (≈ 50.9 µM) | 8 (≈ 25.4 µM) | 13 (≈ 41.4 µM) | 6 (≈ 19.1 µM) | 25 (≈ 79.5 µM) | 3 (≈ 9.54 µM) | 6 (≈ 19.1 µM) | 1000 |  |
| CCCCCCCCC(=O)c1c(O)cc(O)c(Cc2ccccc2)c1O [Compound 27, 2-Nonanoyl-4-benzylphloroglucinol] |  | 1 (≈ 2.81 µM) | 100 (≈ 281 µM) | 50 (≈ 140 µM) | 50 (≈ 140 µM) | 5 (≈ 14 µM) | > 100 | > 1000 | 2 (≈ 5.61 µM) |
| CCCC(=O)c1c(O)cc(O)c2c1OC(C)(C)CC2 [Compound 30, 5,7-dihydroxy-2,2-dimethyl-8-butyryl chroman] | 32 (≈ 121 µM) | 32 (≈ 121 µM) | 25 (≈ 94.6 µM) | 6 (≈ 22.7 µM) | 25 (≈ 94.6 µM) | 13 (≈ 49.2 µM) | 13 (≈ 49.2 µM) | > 1000 |  |
| CC(C)CCC(=O)c1c(O)cc(O)c2c1OC(C)(C)CC2 [Compound 31, 5,7-Dihydroxy-2,2-dimethyl-8-isocaproylchroman] | 16 (≈ 54.7 µM) | 8 (≈ 27.4 µM) | 100 (≈ 342 µM) | 13 (≈ 44.5 µM) | 6 (≈ 20.5 µM) | 6 (≈ 20.5 µM) | 25 (≈ 85.5 µM) | > 1000 |  |
| CCCCCCCCC(=O)c1c(O)cc(O)c2c1OC(C)(C)CC2 [Compound 32, 5,7-Dihydroxy-2,2-dimethyl-8-nonanoyl chroman] | 64 (≈ 191 µM) | < 1 | 100 (≈ 299 µM) | 100 (≈ 299 µM) | 100 (≈ 299 µM) | > 100 | > 100 | > 1000 |  |
| CC(C)CCC(=O)c1c(O)cc2c(c1O)CCC(C)(C)O2 [Compound 33, 5,7-dihydroxy-2,2-dimethyl-6-isocaproyl chroman] | 125 (≈ 428 µM) | 64 (≈ 219 µM) | 100 (≈ 342 µM) | 100 (≈ 342 µM) | > 100 | > 100 | 25 (≈ 85.5 µM) | > 1000 |  |
| CCCCCCCCC(=O)c1c(O)cc2c(c1O)CCC(C)(C)O2 [Compound 34, 5,7-dihydroxy-2,2-dimethyl-6-nonanoyl chroman] | 500 (≈ 1490 µM) | 4 (≈ 12 µM) | 100 (≈ 299 µM) | > 100 | > 100 | > 100 | 100 (≈ 299 µM) | > 1000 |  |
